# Data: patent US10487045B2, “Adamantane derivative and use thereof” (TOHOKU UNIVERSITY, priority 2016, dated 2019)
# Columns and labels:
# [1] = system: CaMKIV defective mice; assay: Tail-suspension and forced swim methods in CaMKIV defective mice; type: in vivo
# Method: OBX mice were originally established as depression model mice although a deterioration of cognitive function was observed. Depression was analyzed by a tail-suspension method (a) and a forced swim method (b). The tail-suspension method is a method of pinching the tail of a mouse and hanging the mouse upside down. If the mouse hung has depression, immobility time is long. Since a normal mouse moves even if it is hung, the immobility time is short. In the forced swim method, a mouse is forced to swim in water in a beaker. A mouse having depression neither swims nor moves (just floating). Thus the immobility time is measured. Immobility time was long in OBX mice both in the tail-suspension method (a) and the forced swim method (b). The immobility time of a TP-014 chronic administration group (2 weeks, in the same administration method as that previously mentioned) was improved.
# CaMKIV induced by Kir6.1 channel was analyzed by using CaMKIV defective mice (n=5, per group*) in the same manner as in FIG. 12. Acceleration of depression-like symptom was observed also in the CaMKIV defective mice. […] TP-014 had no effect on CaMKIV depression-like symptom (increase of immobility time). […] CaMKIV defective mice were obtained from professor, Hiroyuki Sakagami, Kitasato University School of Medicine (Takao K et al., PLoS One 2010, 5, e9460).
# [2] = system: Kir6.2 channel deficient mice; assay: Cognitive function tests and LTP in Kir6.2 channel deficient mice; type: in vivo; conditions: chronic treatment (two months)
# Text: To confirm that TP-014 action is Kir6.2 channel inhibitory action, the action site of TP-014 was identified by the same behavioral experiment as in FIG. 4 (FIG. 8a and FIG. 8b: Y-maze test, FIG. 8c: new object recognition test method, FIG. 8d: fear conditioning test method, FIG. 8e to FIG. 8g: LTP improvement evaluation, n=5 per group) using Kir6.2 channel deficient mice. It was confirmed that cognitive dysfunction is induced in Kir6.2 defective mice. […] It was also shown that memory disturbance and LTP attenuation of Kir6.2 defective mice are not improved by TP-014 chronic treatment (two months). […] The analytical methods are the same as in Test Examples 4 to 7. Note that, Kir6.2 defective mice were obtained from Professor Susumu Seino, School of Medicine of Kobe University (Miki T et al., Proc. Natl. Acad. Sci. U.S.A. 1998, 95, 10402-10406).
# [3] = system: olfactory bulbectomized mice (OBX mice); assay: Cognitive function tests (Y-maze, new object recognition, fear conditioning, LTP) in olfactory bulbectomized mice; type: in vivo; conditions: chronic administration (2 weeks)
# [4] = target: T1, Kir6.2 channel (Mus musculus, UniProt Q61743); assay: Patch-clamp measurement of outward potassium current in Kir6.2 channel-overexpressing cells; type: cell-based; conditions: 10 nM TP-014, Kir6.2 channel-overexpressing cells, membrane potential changed toward a plus side
# T1 construct: expressed in transfected cells; host or cells: Neuro2A (N2A) cells, transient transfection with pcDNA3.1-Kir6.2 (gift of Dr. Toru Ishizuka, Tohoku University)
# T1 sequence (Q61743 1-390): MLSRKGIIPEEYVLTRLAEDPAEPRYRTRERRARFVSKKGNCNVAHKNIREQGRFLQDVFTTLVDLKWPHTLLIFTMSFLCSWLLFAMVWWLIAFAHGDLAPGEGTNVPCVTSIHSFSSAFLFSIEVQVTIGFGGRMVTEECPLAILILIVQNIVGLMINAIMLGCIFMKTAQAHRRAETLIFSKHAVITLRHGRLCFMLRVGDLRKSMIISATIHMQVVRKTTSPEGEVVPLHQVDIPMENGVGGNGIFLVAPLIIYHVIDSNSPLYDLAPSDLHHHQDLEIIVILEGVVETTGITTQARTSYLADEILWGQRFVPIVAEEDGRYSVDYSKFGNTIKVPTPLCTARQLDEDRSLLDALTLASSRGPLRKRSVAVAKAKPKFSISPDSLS
# Method: Using Kir6.2 channel-overexpressing cells obtained in Test Example 1, potassium current flowing outside from the cells was measured by an ordinary patch-clamp method. ATP-sensitive potassium channel (Kir6.2 channel) was localized in the cell membrane of the nerve cells. If the channel is inhibited and closed, the threshold of the nerve cell membrane rises to produce a state analogous to the state where an action potential is temporarily generated, with the result that potassium current flows out from cells outside and, in place, calcium current flows into the cells from outside. […] This was confirmed by applying immunoblotting (the same conditions as in Test Example 1 were employed except that anti-Kir6.2 channel antibody, n=5) with an anti-Kir6.2 channel antibody (prepared based on a customary method) to Kir6.2 channel-overexpressing cells (prepared by the aforementioned method).
# [5] = system: WT mice administered with corticosterone; assay: Anxiety-related behavioral tests (elevated plus-maze, light/dark, marble burying, open field, fear conditioning) in WT mice administered with corticosterone; type: in vivo; conditions: WT mice + corticosterone 5 mg/kg; TP-014 1 mg/kg oral once a day for 2 weeks; all five tests
# Method: Using WT mice (C57BL/6J, Japan SLC, two months old) administered with corticosterone (dose of 5 mg/kg was administered once a day for 2 weeks); and Kir6.1 defective mice administered with corticosterone, as disease model mice showing anxiety-like symptoms, five behavioral tests regarding anxiety-related behavior were conducted. Note that, the Kir6.1 defective mice were obtained from Professor Susumu Seino, School of Medicine of Kobe University (Miki T et al., Nature Medicine 2002, 8, 466-472).
# To the WT mice and Kir6.1 defective mice administered with corticosterone, TP-014 (1 mg/kg) was administered via the oral route once a day for 2 weeks (chronic treatment). As a result, it was confirmed that a significant anxiety symptom acceleration improving effect was obtained. […]
# The time until a mouse placed in a black box (dark place) feels anxiety to light and comes out of the box to a bright place) was measured. […]
# In the cage for housing a mouse is filled with wood chip bedding and 20 marbles are placed such that a mouse can see them. […] The number of marbles buried and hidden in the wood chip bedding is counted. […]
# Using the same test apparatus as in the light/dark test method, a mouse is placed in a dark place, and then, sound (treble) is produced for 30 seconds and thereafter electrical stimulation is given for 3 seconds. […] The immobility time of the mouse is measured. […]
smiles,measurement,setting,value
"O=C(N[C@@H](c1ccccc1)[C@H]1[C@H]2C[C@@H]3C[C@](Cl)(C2)C[C@@]1(OC(=O)C(F)(F)F)C3)C(F)(F)F [TP-014, (1S,2R,3S,5S,7S)-5-chloro-2-((R)-phenyl(2,2,2-trifluoroacetamido)methyl)adamantan-1-yl 2,2,2-trifluoroacetate]",depression-like symptom (increase of immobility time) in CaMKIV defective mice,[1],no effect
same,memory disturbance and LTP attenuation of Kir6.2 defective mice,[2],not improved
same,cognitive dysfunction of OBX mice,[3],significantly improved
same,outward potassium current,[4],suppressed
same,acceleration of anxiety-like symptom,[5],improve acceleration of anxiety-like symptom
